Data on five molecules can be found in ChEMBL document CHEMBL1817647, “1-Heteroaryl-6-(3,4-dichlorophenyl)-3-azabicyclo[4.1.0]heptane: further insights into a class of triple re-uptake inhibitors” (Bioorg Med Chem, 2011).

The target of one data set is Cytochrome P450 2C9 (Homo sapiens, UniProt P11712). Briefly: Inhibition of human CYP2C9 incubated for 10 mins before substrate addition by fluorescence assay.
In data set [1] the target is Sodium-dependent noradrenaline transporter (Homo sapiens, UniProt P23975). Briefly: Displacement of [3H]nisoxetine from human recombinant NET by scintillation proximity assay.
Sequence of Sodium-dependent noradrenaline transporter (P23975 whole entry): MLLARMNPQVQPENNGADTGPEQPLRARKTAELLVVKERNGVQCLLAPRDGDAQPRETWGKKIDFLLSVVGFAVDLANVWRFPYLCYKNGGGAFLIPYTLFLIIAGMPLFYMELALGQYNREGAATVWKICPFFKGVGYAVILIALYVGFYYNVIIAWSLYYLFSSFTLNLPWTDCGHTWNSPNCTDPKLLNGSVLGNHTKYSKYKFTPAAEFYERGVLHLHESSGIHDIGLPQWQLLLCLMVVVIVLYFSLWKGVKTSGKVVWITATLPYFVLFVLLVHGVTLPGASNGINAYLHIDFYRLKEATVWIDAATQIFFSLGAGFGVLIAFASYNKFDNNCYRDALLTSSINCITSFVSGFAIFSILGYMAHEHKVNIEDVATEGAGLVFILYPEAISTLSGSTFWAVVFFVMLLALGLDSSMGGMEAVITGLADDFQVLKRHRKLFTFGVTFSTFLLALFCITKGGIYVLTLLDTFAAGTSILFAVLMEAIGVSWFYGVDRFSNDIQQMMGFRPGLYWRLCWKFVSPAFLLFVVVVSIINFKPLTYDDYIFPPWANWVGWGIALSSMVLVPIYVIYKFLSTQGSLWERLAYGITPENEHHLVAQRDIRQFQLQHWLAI
A further data set concerns the target Cytochrome P450 3A4 (Homo sapiens, UniProt P08684). In words: Inhibition of human CYP3A4 incubated for 10 mins before substrate addition by fluorescence assay.
The target of data set [2] is Sodium-dependent dopamine transporter (Homo sapiens, UniProt Q01959). In words: Displacement of [3H]WIN-35428 from human recombinant DAT by scintillation proximity assay. For orientation: Displacement assays read how much labelled ligand stays bound in the presence of the test substance.
Sequence of Sodium-dependent dopamine transporter (Q01959 whole entry): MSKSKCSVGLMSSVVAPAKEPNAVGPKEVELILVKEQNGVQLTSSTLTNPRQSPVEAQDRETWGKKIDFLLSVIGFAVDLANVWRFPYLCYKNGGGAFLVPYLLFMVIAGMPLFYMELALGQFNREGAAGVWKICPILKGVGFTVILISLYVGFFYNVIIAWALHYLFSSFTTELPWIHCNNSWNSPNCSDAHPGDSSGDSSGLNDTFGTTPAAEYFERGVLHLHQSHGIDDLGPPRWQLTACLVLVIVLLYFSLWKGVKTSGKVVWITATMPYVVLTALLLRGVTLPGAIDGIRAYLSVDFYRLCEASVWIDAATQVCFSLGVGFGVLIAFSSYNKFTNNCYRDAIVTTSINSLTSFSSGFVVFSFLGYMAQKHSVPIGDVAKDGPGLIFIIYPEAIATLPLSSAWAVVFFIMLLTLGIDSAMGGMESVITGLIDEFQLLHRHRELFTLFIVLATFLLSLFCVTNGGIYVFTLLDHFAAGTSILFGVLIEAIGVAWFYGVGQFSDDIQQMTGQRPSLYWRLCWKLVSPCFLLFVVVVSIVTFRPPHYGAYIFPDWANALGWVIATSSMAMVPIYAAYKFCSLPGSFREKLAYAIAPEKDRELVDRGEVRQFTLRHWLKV
The target of data set [3] is Sodium-dependent serotonin transporter (Homo sapiens, UniProt P31645). In words: Displacement of [3H]citalopram from human recombinant SERT scintillation proximity assay.
Sequence of Sodium-dependent serotonin transporter (P31645 whole entry): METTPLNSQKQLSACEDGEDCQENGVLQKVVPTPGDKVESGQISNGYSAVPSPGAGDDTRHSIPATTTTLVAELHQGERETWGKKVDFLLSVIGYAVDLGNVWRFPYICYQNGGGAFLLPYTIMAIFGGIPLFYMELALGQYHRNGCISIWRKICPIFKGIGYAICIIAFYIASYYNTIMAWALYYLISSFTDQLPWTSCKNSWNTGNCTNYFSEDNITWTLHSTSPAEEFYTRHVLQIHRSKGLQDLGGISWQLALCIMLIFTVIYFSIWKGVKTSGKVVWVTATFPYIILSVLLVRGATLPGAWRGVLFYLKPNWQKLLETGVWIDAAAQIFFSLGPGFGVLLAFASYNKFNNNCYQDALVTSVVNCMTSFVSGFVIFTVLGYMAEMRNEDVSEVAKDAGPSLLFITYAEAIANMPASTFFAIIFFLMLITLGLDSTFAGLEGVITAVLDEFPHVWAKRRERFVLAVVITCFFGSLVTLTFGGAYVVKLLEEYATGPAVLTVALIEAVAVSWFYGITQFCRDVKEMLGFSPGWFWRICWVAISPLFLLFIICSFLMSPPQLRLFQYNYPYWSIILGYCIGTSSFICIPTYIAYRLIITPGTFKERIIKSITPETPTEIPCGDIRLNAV
The target of another data set is T1, Cytochrome P450 1A2 (Homo sapiens, UniProt P05177).
T1 sequence (P05177 whole entry): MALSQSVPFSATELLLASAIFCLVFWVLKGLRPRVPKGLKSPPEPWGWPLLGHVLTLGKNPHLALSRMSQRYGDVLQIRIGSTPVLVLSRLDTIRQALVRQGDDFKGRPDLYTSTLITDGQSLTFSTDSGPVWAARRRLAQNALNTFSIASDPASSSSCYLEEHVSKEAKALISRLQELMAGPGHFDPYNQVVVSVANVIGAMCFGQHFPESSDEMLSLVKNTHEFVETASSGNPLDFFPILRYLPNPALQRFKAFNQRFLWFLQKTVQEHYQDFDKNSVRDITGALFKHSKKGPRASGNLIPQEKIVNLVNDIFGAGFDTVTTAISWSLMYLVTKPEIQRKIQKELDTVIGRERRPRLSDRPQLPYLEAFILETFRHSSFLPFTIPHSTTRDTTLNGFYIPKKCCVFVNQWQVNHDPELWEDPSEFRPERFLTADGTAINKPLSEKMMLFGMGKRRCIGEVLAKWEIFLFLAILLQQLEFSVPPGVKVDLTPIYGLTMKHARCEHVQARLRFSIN
In words: Inhibition of human CYP1A2 incubated for 10 mins before substrate addition by fluorescence assay.

The subject of data set [4] is Liver microsomes. Briefly: Intrinsic clearance in rat liver microsomes assessed per mg of protein at 0.5 uM for 30 mins by HPLC-MS/MS analysis in presence of NADPH. In kind it is ADME, Microsome. As to conditions: 0.5 h.
In the next data set the target is Cytochrome P450 2C19 (Homo sapiens, UniProt P33261). In words: Inhibition of human CYP2C19 incubated for 10 mins before substrate addition by fluorescence assay.
Sequence of Cytochrome P450 2C19 (P33261 whole entry): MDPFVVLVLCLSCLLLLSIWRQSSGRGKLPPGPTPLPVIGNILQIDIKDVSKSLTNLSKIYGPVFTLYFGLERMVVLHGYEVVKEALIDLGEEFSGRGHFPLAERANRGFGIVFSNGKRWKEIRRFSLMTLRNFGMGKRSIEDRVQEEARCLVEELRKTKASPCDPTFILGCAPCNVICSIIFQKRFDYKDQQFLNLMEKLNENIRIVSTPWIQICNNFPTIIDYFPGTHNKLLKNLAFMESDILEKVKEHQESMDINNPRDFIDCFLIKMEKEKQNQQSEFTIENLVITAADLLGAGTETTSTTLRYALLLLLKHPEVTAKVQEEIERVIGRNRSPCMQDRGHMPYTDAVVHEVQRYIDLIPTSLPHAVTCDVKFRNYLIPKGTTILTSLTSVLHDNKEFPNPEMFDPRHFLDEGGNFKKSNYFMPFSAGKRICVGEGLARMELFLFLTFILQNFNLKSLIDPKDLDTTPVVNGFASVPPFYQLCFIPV
In a further data set the target is Cytochrome P450 2D6 (Homo sapiens, UniProt P10635). In words: Inhibition of human CYP2D6 incubated for 10 mins before substrate addition by fluorescence assay.
Sequence of Cytochrome P450 2D6 (P10635 whole entry): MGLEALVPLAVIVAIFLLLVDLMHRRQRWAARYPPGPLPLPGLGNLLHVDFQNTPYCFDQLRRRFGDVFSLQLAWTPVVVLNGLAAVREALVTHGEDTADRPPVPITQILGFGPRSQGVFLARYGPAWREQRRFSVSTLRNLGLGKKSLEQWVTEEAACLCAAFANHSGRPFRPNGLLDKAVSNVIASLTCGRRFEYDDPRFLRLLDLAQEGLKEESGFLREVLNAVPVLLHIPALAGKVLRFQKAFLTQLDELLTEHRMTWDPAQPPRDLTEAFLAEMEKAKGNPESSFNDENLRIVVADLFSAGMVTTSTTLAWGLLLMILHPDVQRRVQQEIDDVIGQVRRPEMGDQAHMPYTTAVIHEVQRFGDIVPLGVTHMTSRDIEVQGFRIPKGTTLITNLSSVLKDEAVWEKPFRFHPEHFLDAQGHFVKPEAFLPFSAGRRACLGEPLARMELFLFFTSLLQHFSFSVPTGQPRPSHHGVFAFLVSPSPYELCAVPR
Data set [5] relates to Liver microsomes. In words: Intrinsic clearance in human liver microsomes assessed per mg of protein at 0.5 uM for 30 mins by HPLC-MS/MS analysis in presence of NADPH. As to conditions: 0.5 h. In kind it is ADME, Microsome.
The nature of data set [6]: Half life in rat. In kind it is ADME, organism-based. Conditions: in vivo.
Data set [7] in a line: Oral absorption in rat. Type of data set: ADME, organism-based. Conditions: in vivo.
Data set [8] can be described thus: Blood clearance in rat. In kind it is ADME, organism-based.
The nature of data set [9]: Ratio of drug level in brain to blood in rat after 1 hr. In kind it is ADME, tissue-based. As to conditions: read-out: BBR.
Data set [10] is described as follows: Volume of distribution in rat. Type of data set: ADME, organism-based. Conditions: in vivo.
Data set [11] can be described thus: Oral bioavailability in rat. As to conditions: in vivo. In kind it is ADME, organism-based.
A short description of data set [12]: Hepatic extraction ratio in rat. Conditions: in vivo.

Sequence of Cytochrome P450 3A4 (P08684 whole entry): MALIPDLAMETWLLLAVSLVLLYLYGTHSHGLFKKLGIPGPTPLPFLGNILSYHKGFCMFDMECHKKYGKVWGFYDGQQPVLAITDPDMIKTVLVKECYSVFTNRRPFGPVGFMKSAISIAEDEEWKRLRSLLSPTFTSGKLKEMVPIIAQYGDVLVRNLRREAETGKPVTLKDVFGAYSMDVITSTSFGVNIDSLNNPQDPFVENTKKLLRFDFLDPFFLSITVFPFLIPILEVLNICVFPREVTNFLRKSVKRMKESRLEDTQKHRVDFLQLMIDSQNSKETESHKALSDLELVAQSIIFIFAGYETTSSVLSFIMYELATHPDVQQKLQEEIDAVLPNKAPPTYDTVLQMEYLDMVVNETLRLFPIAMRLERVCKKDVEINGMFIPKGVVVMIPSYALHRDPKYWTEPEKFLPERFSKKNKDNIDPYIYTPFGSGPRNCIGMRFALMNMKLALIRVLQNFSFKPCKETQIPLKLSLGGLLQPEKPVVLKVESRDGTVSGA
Sequence of Cytochrome P450 2C9 (P11712 whole entry): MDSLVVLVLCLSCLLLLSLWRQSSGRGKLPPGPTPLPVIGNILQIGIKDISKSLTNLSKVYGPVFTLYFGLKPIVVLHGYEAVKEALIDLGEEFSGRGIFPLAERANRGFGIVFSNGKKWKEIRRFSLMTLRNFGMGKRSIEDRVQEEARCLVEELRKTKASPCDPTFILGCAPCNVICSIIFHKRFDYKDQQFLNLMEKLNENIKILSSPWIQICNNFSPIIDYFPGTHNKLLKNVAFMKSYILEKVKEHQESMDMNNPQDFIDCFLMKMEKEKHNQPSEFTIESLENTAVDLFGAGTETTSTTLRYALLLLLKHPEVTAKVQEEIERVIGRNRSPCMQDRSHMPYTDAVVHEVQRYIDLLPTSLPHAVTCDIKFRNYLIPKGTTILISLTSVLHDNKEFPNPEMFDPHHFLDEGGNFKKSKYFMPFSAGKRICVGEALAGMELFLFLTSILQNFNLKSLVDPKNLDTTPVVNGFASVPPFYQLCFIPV

What is called IC50 is the midpoint of a concentration-inhibition curve. Low readings indicate higher potency, high ones lower potency. A word on the Ki: it is a measure of affinity in units of concentration, obtained from inhibition or displacement. Take `Cc1ccnn1CC12CNCC[C@]1(c1ccc(Cl)c(Cl)c1)C2` (single isomer, unassigned; enantiomer 2): the IC50 against Cytochrome P450 2C9, at Cytochrome P450 3A4, at Cytochrome P450 1A2, on Cytochrome P450 2C19 and at Cytochrome P450 2D6 was over 10000 nM in each case. Further, the values for the Ki in data set [1], in data set [2] and in data set [3] were 1.58 nM, 3.16 nM and 0.794 nM, respectively. In addition, the CL in the data set on Liver microsomes [4] worked out at 2.6 mL/min/g; in the data set on Liver microsomes [5], 2.5 mL/min/g.

As a reminder, the half-life is how long it takes for the measured level to halve. A low value points to rapid decline. As usually defined, the clearance is the volume of plasma or blood freed of the substance per unit of time. By Vd is commonly meant a proportionality between amount in the body and measured concentration, not a real space. Low values mean little distribution into tissue, high ones wide distribution into tissue. By bioavailability is commonly meant dose-corrected exposure relative to a reference, in per cent. A lower bioavailability goes with little systemic uptake. With `Cc1cc(C)n(CC23CNCC[C@]2(c2ccc(Cl)c(Cl)c2)C3)n1` (single isomer, unassigned), the half-life in [6] was 2.3 h. This molecule showed a Fa in data set [7] of 50%. Also, the inhibitory constant (Ki) in [1] was 1 nM; in data set [2] it was 3.16 nM; in data set [3], 0.2 nM. The molecule also had a clearance in data set [8] of 52 mL/min/kg. Further, the Kp at 1 h in data set [9] came out at 0.8. Further, the CL was determined as 5.5 mL/min/g with Liver microsomes [4] and 2.4 mL/min/g in the data set with Liver microsomes [5]. In [10], this molecule showed a Vd of 6.9 L/kg. The molecule further returned a bioavailability in [11] of 6%.

With `Cc1ccn(CC23CNCC[C@]2(c2ccc(Cl)c(Cl)c2)C3)n1` (stereo in doubt), the IC50 against Cytochrome P450 2C9, against Cytochrome P450 3A4, against Cytochrome P450 1A2, on Cytochrome P450 2C19 and against Cytochrome P450 2D6 was over 10000 nM each time. The Ki is 3.16 nM in data set [1], 15.8 nM in [2] and 0.251 nM in data set [3].

In [6], `Cc1nc(C)n(CC23CNCC[C@]2(c2ccc(Cl)c(Cl)c2)C3)n1` (single isomer, unassigned; enantiomer 1) showed a half-life of 1.7 h. In addition, in [7], the Fa stood at 94%. The IC50 against Cytochrome P450 2C9, against Cytochrome P450 3A4, on Cytochrome P450 1A2, on Cytochrome P450 2C19 and against Cytochrome P450 2D6 was over 25000 nM throughout. The Ki is 25.1 nM in data set [1], 15.8 nM in data set [2] and 2 nM in [3]. Moreover, the hepatic extraction ratio in data set [12] was determined as 0.8. The clearance in data set [8] was 63 mL/min/kg. In addition, in data set [9], the Kp at 1 h was determined as 0.4. The same molecule displayed a Vd in data set [10] of 8.1 L/kg. The bioavailability in data set [11] is 17%.

On to `Cc1csc(C23CNCC[C@]2(c2ccc(Cl)c(Cl)c2)C3)n1` (single isomer, unassigned; enantiomer 1), for which the IC50 against Cytochrome P450 2C9, against Cytochrome P450 3A4, on Cytochrome P450 1A2, on Cytochrome P450 2C19 and on Cytochrome P450 2D6 was over 6000 nM each time. The results for the Ki in data set [1], in [2] and in data set [3] were 0.398 nM, 0.2 nM and 0.398 nM, respectively. The CL in the data set with Liver microsomes [4] came out at 5.4 mL/min/g; in the data set on Liver microsomes [5], 2.6 mL/min/g.
